This is an account of results in patent US20120053053A1, “PYRIMIDINE DERIVATIVES AND THEIR USE AS HERBICIDES” (SYNGENTA CROP PROTECTION, LLC, priority 2009, published 2012).

Common to all, as to assay type: in vivo
Assay [1] relates to Alopecurus myosuroides (ALOMY). The assay is described as follows: Pre-emergence biological efficacy (percentage damage). To be noted: Alopecurus myosuroides, 312 h, dose 1,000 g/ha, evaluated after 13 days, 100=total damage, 0=no damage. The method, boiled down: (§1)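 Percentage damage (100 = total, 0 = none) was assessed 13 days after treatment. Compound was sprayed at a final dose of 250 or 1000 g/ha onto soil sown one day earlier, with plants kept under controlled glasshouse conditions (24/16 °C, 14 h light, 65% humidity).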

Assay [2] has as its system Amaranthus retoflexus (AMARE). The description is as above. To be noted: Amaranthus retroflexus, 312 h, dose 1,000 g/ha, evaluated after 13 days, 100=total damage, 0=no damage. The method, boiled down:
as §1

Assay [3] has as its system Echinochloa crus-galli (ECHCG). Described as above. To be noted: Echinochloa crus-galli, 312 h, dose 1,000 g/ha, evaluated after 13 days, 100=total damage, 0=no damage. The method, boiled down:
as §1

Assay [4] concerns Ipomea hederaceae (IPOHE). The description is as above. The following applies: Ipomoea hederacea, 312 h, dose 1,000 g/ha, evaluated after 13 days, 100=total damage, 0=no damage. In short, it runs like this: as §1
In assay [5] the test system is Setaria faberi (SETFA). The description is as above. To be noted: Setaria faberi, 312 h, dose 1,000 g/ha, evaluated after 13 days, 100=total damage, 0=no damage. The method, boiled down:
as §1

Assay [6] deals with Solanum nigrum (SOLNI). Described as above. The following applies: Solanum nigrum, 312 h, dose 1,000 g/ha, evaluated after 13 days, 100=total damage, 0=no damage. The method, boiled down: as §1
Assay [7] relates to Alopecurus myosuroides (ALOMY). Nature of the assay: Post-emergence biological efficacy (percentage damage). To be noted: Alopecurus myosuroides, 312 h, dose 1,000 g/ha, evaluated after 13 days, 100=total damage, 0=no damage. The method, boiled down: (§2)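 Pot-grown plants are cultivated 8 days under glasshouse conditions (24/16 °C, 14 h light, 65% humidity), sprayed at a dose of 250 or 1000 g/ha, kept under the same conditions with twice-daily watering, and rated for damage after 13 days.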

The subject of assay [8] is Amaranthus retoflexus (AMARE). The assay is described as above. The following applies: Amaranthus retroflexus, 312 h, dose 1,000 g/ha, evaluated after 13 days, 100=total damage, 0=no damage. The method, boiled down: as §2
The test system of assay [9] is Echinochloa crus-galli (ECHCG). Described as above. The following applies: Echinochloa crus-galli, 312 h, dose 1,000 g/ha, evaluated after 13 days, 100=total damage, 0=no damage. The method, boiled down: as §2
The test system of assay [10] is Ipomea hederaceae (IPOHE). Described as above. To be noted: Ipomoea hederacea, 312 h, dose 1,000 g/ha, evaluated after 13 days, 100=total damage, 0=no damage. In short, it runs like this: as §2
In assay [11] the test system is Setaria faberi (SETFA). Described as above. The following applies: Setaria faberi, 312 h, dose 1,000 g/ha, evaluated after 13 days, 100=total damage, 0=no damage. The method, boiled down: as §2
For assay [12], the system named is Solanum nigrum (SOLNI). Described as above. The following applies: Solanum nigrum, 312 h, dose 1,000 g/ha, evaluated after 13 days, 100=total damage, 0=no damage. The method, boiled down:
as §2

Usually pest or weed control stands for how far the test organism was held down. `C=Cc1c(N)nc(-c2ccc(Cl)c(OC)c2F)nc1C(=O)O` [Compound 27-21, 4-amino-2-(4-chloro-2-fluoro-3-methoxyphenyl)-5-ethenylpyrimidine-6-carboxylic acid]: the pest or weed control at 1000 g/ha in [1] came out at 90%; in assay [2] it was 100%; in assay [3], 100%; in assay [4], 100%; in the assay with Setaria faberi (SETFA) [5] it was 100%; in the assay on Solanum nigrum (SOLNI) [6], 100%. In addition, the pest or weed control at 1000 g/ha in [7] came to 90%; in assay [8] it was 100%; in assay [9] it was 90%; in [10] it was 90%; in the assay on Setaria faberi (SETFA) [11], 100%; in the assay on Solanum nigrum (SOLNI) [12], 90%.

Consider `COC(=O)c1nc(-c2ccc(Cl)c(N(C)C)c2F)nc(N)c1C(C)=O` [Compound 33-53, 4-Amino-2-(4-chloro-3-dimethylamino-2-fluorophenyl)-6-methoxycarbonyl-5-methylcarbonyl-pyrimidine], for which the pest or weed control at 1000 g/ha (in assay [1]; in [2]; in [3]; in [4]; in the assay with Setaria faberi (SETFA) [5]; in the assay with Solanum nigrum (SOLNI) [6]) was 0% throughout. In addition, the pest or weed control at 1000 g/ha in assay [7] stood at 10%; in assay [8], 100%; in assay [9], 20%; in assay [10], 40%; in the assay on Setaria faberi (SETFA) [11], 20%; in the assay on Solanum nigrum (SOLNI) [12], 50%.

For the compound `C=Cc1c(N)nc(-c2ccc(Cl)cc2)nc1C(=O)OC` [Compound 5-61, 4-Amino-2-(4-chlorophenyl)-5-ethenyl-6-methoxycarbonyl-pyrimidine], the pest or weed control at 1000 g/ha is 60% in assay [1]; 100% in assay [2]; 60% in assay [3]; 90% in [4]; 60% in the assay on Setaria faberi (SETFA) [5]; 90% with Solanum nigrum (SOLNI) [6]. The pest or weed control at 1000 g/ha in assay [7] amounted to 80%; in assay [8], 100%; in [9], 90%; in assay [10], 100%; with Setaria faberi (SETFA) [11], 100%; in the assay on Solanum nigrum (SOLNI) [12] it was 100%.

`C=C(C)c1c(N)nc(-c2ccc(Cl)c(N(C)C)c2F)nc1C(=O)OC` [Compound 33-64, 4-Amino-2-(4-chloro-3-dimethylamino-2-fluorophenyl)-6-methoxycarbonyl-5-(prop-1-en-2-yl)-pyrimidine]: the pest or weed control at 1000 g/ha (in assay [1]; in assay [2]; in [3]; in [4]; in the assay on Setaria faberi (SETFA) [5]; with Solanum nigrum (SOLNI) [6]) was 0% throughout. Also, the pest or weed control at 1000 g/ha in assay [7] turned out to be 0%; in [8] it was 10%; in [9], 0%; in [10] it was 10%; in the assay on Setaria faberi (SETFA) [11], 0%; in the assay with Solanum nigrum (SOLNI) [12], 20%.

As for `COC(=O)c1nc(-c2ccc(Cl)c(OC)c2F)nc(N)c1C=C(C)C` [Compound 27-69, 4-Amino-2-(4-chloro-2-fluoro-3-methoxyphenyl)-6-methoxycarbonyl-5-(2-methylprop-1-enyl)-pyrimidine], the pest or weed control at 1000 g/ha is 40% in assay [1]; 100% in assay [2]; 30% in assay [3]; 30% in assay [4]; 60% in the assay on Setaria faberi (SETFA) [5]; 100% in the assay on Solanum nigrum (SOLNI) [6]. In addition, the pest or weed control at 1000 g/ha in [7] was determined as 40%; in assay [8], 90%; in [9] it was 10%; in assay [10], 40%; in the assay with Setaria faberi (SETFA) [11], 40%; in the assay on Solanum nigrum (SOLNI) [12], 80%.

Turning to `C=Cc1c(N)nc(-c2ccc(Cl)c(OC)c2F)nc1C(=O)OC` [Compound 27-61, 4-Amino-2-(4-chloro-2-fluoro-3-methoxyphenyl)-5-ethenyl-6-methoxycarbonyl-pyrimidine], the pest or weed control at 1000 g/ha in assay [1] came out at 90%; in assay [2], 100%; in assay [3], 90%; in assay [4] it was 90%; in the assay on Setaria faberi (SETFA) [5] it was 90%; in the assay with Solanum nigrum (SOLNI) [6], 100%. The pest or weed control at 1000 g/ha in assay [7] came out at 90%; in assay [8], 100%; in assay [9], 90%; in assay [10], 80%; with Setaria faberi (SETFA) [11], 100%; with Solanum nigrum (SOLNI) [12] it was 80%.

As for `C=Cc1c(N)nc(-c2ccc(C(=O)OC)cc2)nc1C(=O)OC` [Compound 69-61, 4-Amino-5-ethenyl-6-methoxycarbonyl-2-(4-methoxycarbonyl-phenyl)-pyrimidine], the pest or weed control at 1000 g/ha (in assay [1]; in [2]; in assay [3]; in assay [4]; in the assay on Setaria faberi (SETFA) [5]; with Solanum nigrum (SOLNI) [6]) was 0% each time. In addition, the pest or weed control at 1000 g/ha came out at 0% in [7]; 0% in assay [8]; 0% in assay [9]; 30% in assay [10]; 0% in the assay with Setaria faberi (SETFA) [11]; 20% in the assay on Solanum nigrum (SOLNI) [12].

For `Cc1c(OCC(=O)OC(C)(C)C)nc(C2CC2)nc1OCC(=O)OC(C)(C)C` [Compound 2-389, 4,6-bis(t-butoxy-carbonyl-methoxy)-2-cyclo-propyl-5-methyl-pyrimidine], the pest or weed control at 1000 g/ha was found to be 0% in assay [1]; 20% in assay [2]; 0% in [3]; 0% in assay [4]; 0% in the assay on Setaria faberi (SETFA) [5]; 0% with Solanum nigrum (SOLNI) [6]. The pest or weed control at 1000 g/ha turned out to be 0% in assay [7]; 0% in assay [8]; 0% in assay [9]; 20% in assay [10]; 0% in the assay on Setaria faberi (SETFA) [11]; 30% in the assay with Solanum nigrum (SOLNI) [12].

Turning to `C=C(OCC)c1c(N)nc(-c2ccc(Cl)c(OC)c2F)nc1C(=O)OC` [Compound 27-67], the pest or weed control at 1000 g/ha in assay [1] was determined as 20%; in [2], 30%; in assay [3], 20%; in assay [4], 40%; in the assay on Setaria faberi (SETFA) [5], 10%; in the assay with Solanum nigrum (SOLNI) [6], 100%. For the same compound, the pest or weed control at 1000 g/ha was determined as 0% in assay [7]; 40% in assay [8]; 10% in [9]; 60% in assay [10]; 10% in the assay on Setaria faberi (SETFA) [11]; 80% in the assay with Solanum nigrum (SOLNI) [12].
